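Assay format: 96-well plates, 48-hour exposure. The concentration for 50% growth inhibition is given as GI50.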 Calls of active or inactive are those of the source. Cut-off read from the data, not from the text of the source: active = GI50 up to about 1.1 µM and inactive = higher.
What was measured:
Experiment in all cases: inhibition of tumour cell growth, NCI panel, 48 h
SK-OV-3 = tested on: SK-OV-3
M14 = tested on: M14
ACHN = tested on: ACHN
SN12C = tested on: SN12C
SW-620 = tested on: SW-620
COLO 205 = tested on: COLO 205
OVCAR-3 = tested on: OVCAR-3
HCC 2998 = tested on: HCC 2998
LOX IMVI = tested on: LOX IMVI
IGROV-1 = tested on: IGROV-1
SR = tested on: SR
Hs-578T = tested on: Hs-578T
PC-3 = tested on: PC-3
NCI-H23 = tested on: NCI-H23
HOP-62 = tested on: HOP-62
K562 = tested on: K562
SK-MEL-5 = tested on: SK-MEL-5
SNB-75 = tested on: SNB-75
HCT-116 = tested on: HCT-116
TK-10 = tested on: TK-10

SMILES	GI50 (SK-OV-3)	GI50 (M14)	GI50 (ACHN)	GI50 (SN12C)	GI50 (SW-620)	GI50 (COLO 205)	GI50 (OVCAR-3)	GI50 (HCC 2998)	GI50 (LOX IMVI)	GI50 (IGROV-1)	GI50 (SR)	GI50 (Hs-578T)	GI50 (PC-3)	GI50 (NCI-H23)	GI50 (HOP-62)	GI50 (K562)	GI50 (SK-MEL-5)	GI50 (SNB-75)	GI50 (HCT-116)	GI50 (TK-10)
O=C(CCC(NC(=O)OCc1ccccc1)C(=O)OCc1ccccc1)Nc1ccc(OCc2ccccc2)cc1 (stereo not given)	> 31.6 µM (inactive)	> 75.7 µM (inactive)	29.6 µM (inactive)	> 31.6 µM (inactive)	25.7 µM (inactive)	25.8 µM (inactive)	> 84.1 µM (inactive)	> 31.6 µM (inactive)	> 31.6 µM (inactive)	> 31.6 µM (inactive)	27.3 µM (inactive)	18.3 µM (inactive)	13.2 µM (inactive)	16.3 µM (inactive)	> 78.7 µM (inactive)	27.2 µM (inactive)	> 10 µM (inactive)	> 31.6 µM (inactive)	11.4 µM (inactive)	> 31.6 µM (inactive)
CSc1nc(NC(C)C)c2c(n1)Sc1nc3ccccc3n1N=C2	11.1 µM (inactive)	40.5 µM (inactive)	5.83 µM (inactive)	10.7 µM (inactive)	13.1 µM (inactive)	7.69 µM (inactive)	10.4 µM (inactive)	3.65 µM (inactive)	10.7 µM (inactive)	16.9 µM (inactive)	13.2 µM (inactive)	20 µM (inactive)	19.5 µM (inactive)	11.7 µM (inactive)	5.66 µM (inactive)	50.9 µM (inactive)	0.69 µM (active)	–	7.01 µM (inactive)	13.8 µM (inactive)
COC(=O)C1=C(O)C(C(=O)OC)[C@]2(O)[C@H](C(=O)OC)[C@H]1C[C@@H](c1ccccc1OC)[C@H]2C(=O)OC (stereo not given in full)	4.33 µM (inactive)	2.88 µM (inactive)	6.25 µM (inactive)	4.68 µM (inactive)	4.25 µM (inactive)	4.55 µM (inactive)	6.04 µM (inactive)	10.5 µM (inactive)	2.79 µM (inactive)	3.33 µM (inactive)	1.93 µM (inactive)	2.49 µM (inactive)	6.03 µM (inactive)	3.52 µM (inactive)	12.3 µM (inactive)	4.38 µM (inactive)	3.64 µM (inactive)	10.7 µM (inactive)	3.65 µM (inactive)	14.1 µM (inactive)
CN1C(=O)C(C(N)=O)C2CC1(C)Oc1ccccc12 (stereo not given)	> 100 µM (inactive)	> 100 µM (inactive)	> 100 µM (inactive)	> 100 µM (inactive)	> 100 µM (inactive)	> 100 µM (inactive)	> 100 µM (inactive)	> 100 µM (inactive)	> 100 µM (inactive)	> 100 µM (inactive)	> 100 µM (inactive)	> 100 µM (inactive)	> 100 µM (inactive)	> 100 µM (inactive)	> 100 µM (inactive)	> 100 µM (inactive)	> 100 µM (inactive)	> 100 µM (inactive)	> 100 µM (inactive)	–
CC(N1CCOCC1)C(O)(c1ccccc1)c1ccccn1 (stereo not given)	> 100 µM (inactive)	> 100 µM (inactive)	52.8 µM (inactive)	> 100 µM (inactive)	> 100 µM (inactive)	> 100 µM (inactive)	> 100 µM (inactive)	0.0192 µM (active)	> 100 µM (inactive)	> 100 µM (inactive)	> 100 µM (inactive)	> 100 µM (inactive)	> 100 µM (inactive)	> 100 µM (inactive)	> 100 µM (inactive)	> 100 µM (inactive)	> 100 µM (inactive)	> 100 µM (inactive)	> 100 µM (inactive)	> 100 µM (inactive)
Oc1nc2ccccc2c(O)c1Cc1ccccc1	–	–	> 100 µM (inactive)	> 100 µM (inactive)	> 100 µM (inactive)	> 100 µM (inactive)	> 100 µM (inactive)	> 100 µM (inactive)	> 100 µM (inactive)	> 100 µM (inactive)	> 100 µM (inactive)	> 100 µM (inactive)	> 100 µM (inactive)	> 100 µM (inactive)	> 100 µM (inactive)	> 100 µM (inactive)	> 100 µM (inactive)	> 100 µM (inactive)	> 100 µM (inactive)	> 100 µM (inactive)
Fc1ccc(F)c(/C=N/C23CC4CC(CC(C4)C2)C3)c1	> 10 µM (inactive)	> 10 µM (inactive)	> 10 µM (inactive)	> 10 µM (inactive)	> 10 µM (inactive)	> 10 µM (inactive)	> 10 µM (inactive)	> 10 µM (inactive)	> 10 µM (inactive)	> 10 µM (inactive)	> 10 µM (inactive)	> 10 µM (inactive)	> 10 µM (inactive)	> 10 µM (inactive)	> 10 µM (inactive)	4.44 µM (inactive)	> 10 µM (inactive)	> 10 µM (inactive)	> 10 µM (inactive)	> 10 µM (inactive)
O=C(NCCCCNCCCNC(=O)OCc1ccccc1)OCc1ccccc1	69.7 µM (inactive)	18.3 µM (inactive)	43.4 µM (inactive)	85.3 µM (inactive)	61.7 µM (inactive)	16.9 µM (inactive)	> 100 µM (inactive)	19.5 µM (inactive)	–	22.1 µM (inactive)	23.9 µM (inactive)	31.8 µM (inactive)	27.2 µM (inactive)	> 100 µM (inactive)	27.8 µM (inactive)	30.8 µM (inactive)	16.9 µM (inactive)	25.5 µM (inactive)	24.5 µM (inactive)	43.7 µM (inactive)
COc1ccc(CC2c3cc(OC)c(OC)c(OC)c3CC[N+]2(C)C)cc1Oc1ccc(CC2c3cc4c(c(OC)c3CCN2C)OCO4)cc1 (stereo not given)	> 100 µM (inactive)	> 100 µM (inactive)	> 100 µM (inactive)	> 100 µM (inactive)	> 100 µM (inactive)	> 100 µM (inactive)	> 100 µM (inactive)	> 100 µM (inactive)	> 100 µM (inactive)	> 100 µM (inactive)	52.1 µM (inactive)	> 100 µM (inactive)	> 100 µM (inactive)	> 100 µM (inactive)	–	57.5 µM (inactive)	96.6 µM (inactive)	> 100 µM (inactive)	> 100 µM (inactive)	> 100 µM (inactive)
CC1=C(Cl)C[C@@H](/C(C)=C\Cl)O[C@@]1(O)C(Br)Br	> 100 µM (inactive)	22.5 µM (inactive)	30.5 µM (inactive)	19.5 µM (inactive)	37.3 µM (inactive)	29.5 µM (inactive)	17.5 µM (inactive)	33.3 µM (inactive)	31.7 µM (inactive)	34.3 µM (inactive)	19.5 µM (inactive)	45.5 µM (inactive)	60.5 µM (inactive)	41.9 µM (inactive)	> 100 µM (inactive)	17.3 µM (inactive)	24.9 µM (inactive)	55.6 µM (inactive)	30.4 µM (inactive)	29 µM (inactive)
O=C1CC(n2cccc2)c2c(Br)sc(Br)c21 (stereo not given)	19.4 µM (inactive)	14.9 µM (inactive)	17.5 µM (inactive)	17.3 µM (inactive)	12.4 µM (inactive)	16.9 µM (inactive)	15.8 µM (inactive)	15.4 µM (inactive)	6.73 µM (inactive)	16.2 µM (inactive)	3.89 µM (inactive)	25.1 µM (inactive)	16.4 µM (inactive)	13.6 µM (inactive)	22.1 µM (inactive)	14.5 µM (inactive)	16 µM (inactive)	18.7 µM (inactive)	15.3 µM (inactive)	19.2 µM (inactive)
CSC(SC)=C(C#N)C(=O)Nc1ccc(C)cc1	> 100 µM (inactive)	> 100 µM (inactive)	> 100 µM (inactive)	> 100 µM (inactive)	> 100 µM (inactive)	> 100 µM (inactive)	> 100 µM (inactive)	> 100 µM (inactive)	> 100 µM (inactive)	61.4 µM (inactive)	63 µM (inactive)	> 100 µM (inactive)	> 100 µM (inactive)	> 100 µM (inactive)	> 100 µM (inactive)	75.3 µM (inactive)	> 100 µM (inactive)	–	49.5 µM (inactive)	> 100 µM (inactive)
COC1=C(OC)C(=O)C(C/C=C/c2c(Cl)nc3sccn23)=C(C)C1=O	16.7 µM (inactive)	16.2 µM (inactive)	15.5 µM (inactive)	16.6 µM (inactive)	21.3 µM (inactive)	16.9 µM (inactive)	13.7 µM (inactive)	18.2 µM (inactive)	2.24 µM (inactive)	17.4 µM (inactive)	15 µM (inactive)	20.5 µM (inactive)	11.8 µM (inactive)	0.518 µM (active)	16.8 µM (inactive)	19.8 µM (inactive)	1.32 µM (inactive)	–	12.8 µM (inactive)	15 µM (inactive)
Nc1ncc(Br)c(NCC2(CO)CCC2)n1	–	–	> 100 µM (inactive)	> 100 µM (inactive)	> 100 µM (inactive)	> 100 µM (inactive)	> 100 µM (inactive)	> 100 µM (inactive)	> 100 µM (inactive)	> 100 µM (inactive)	> 100 µM (inactive)	> 100 µM (inactive)	> 100 µM (inactive)	> 100 µM (inactive)	> 100 µM (inactive)	> 100 µM (inactive)	54.5 µM (inactive)	> 100 µM (inactive)	> 100 µM (inactive)	> 100 µM (inactive)
